Measured values: patent publication US7888389B2 (The Regents of the University of Michigan, priority 2002, dated 2011)
“And” between values parts separate entries of the source, which are not always exact repeats. Identical values can stand only once. Like-named read-outs stand apart in the source and are kept apart here.

How the values were obtained:
[1] = Stability in open Petri dishes at room temperature (activity over time); conditions: for percentage activity: open Petri dishes at room temperature
Description: FIG. 4. […] Stability of each compound was studied under conditions that exacerbate instability, i.e. the drugs were in open Petri dishes at room temperature. The percentage activity is plotted as a function of time in days.
This study was done under conditions that exacerbate instability, ie. the drugs were in open Petri dishes at room temperature.

[2] = test system: MML cells (prostate cancer) and breast cancer cells
[3] = cited from earlier work
breast cancer cells = assay: Human breast cancer xenograft growth in athymic nude mice; type: in vivo; conditions: TM 1 mg/day; TP-TM 1 mg/day and 1.5 mg/day; p<0.01 vs control
Procedure: FIG. 5. […] 10^6 breast cancer cells were injected in the mammary fat pad of 4 groups of athymic, nude mice (5 mice per group). Control mice received no treatment.
In this study, 10^6 breast cancer cells were injected in the mammary fat pad of 4 groups of athymic, nude mice (5 mice per group). Control mice received no treatment.

[4] = cited from earlier work; remark: listed apart in the source
[5] = Storage stability of TM (bulk and capsules); type: physicochemical; conditions: room temperature
Description: TM and salts of TM are available; one of the preferred salts of TM is the ammonium salt. […] TM purchased from Aldrich Chemical Company (available in one kilogram bulk lots) is certified pure for human use. The bulk drug should be stored in the absence of oxygen, or the oxygen will gradually exchange with the sulfur, rendering the drug ineffective over time. The bulk drug is therefore stored under argon.
TM was purchased in bulk lots suitable for human administration (Aldrich Chemical Company, Milwaukee, Wis.). […] At the time a prescription was written, the appropriate dose of TM was placed in gelatin capsules. […] Thus, TM was dispensed to each patient in eight-week installments throughout the trial.

mammary tumors = assay: Mammary tumor development in HER2-neu transgenic mice
[6] = IV 99Mo labeled TM, sheep; cited from earlier work
[7] = Stability in moist heated air; type: physicochemical
[8] = cited from earlier work; remark: listed apart in the source
[9] = test system: mouse sarcoma, MCA205, and mouse melanoma, B16B16; assay: Mouse tumor model, injected tumor cells; type: in vivo, C57B1/6J mice
Procedure: Under these guidelines, anti-angiogenesis therapeutic studies were conducted using TM in a mouse tumor model. This study involved subcutaneous or intramuscular injection of tumor cells into young adult C57B1/6J mice. Two tumors were used, a mouse sarcoma, MCA205, and a mouse melanoma, B16B16. The MCA 205 tumor cell suspension was injected subcutaneously into C57B16 mice. After the tumors were palpable, copper deficiency was induced by use of TM in half the animals, using Cp levels to monitor copper status. The other half were sham treated. Tumor growth was compared between the untreated control group and mice treated with sufficient TM to reduce Cp to about 10% of normal controls.

[10] = test system: SUM149 breast cancer cells; assay: SUM149 orthotopic tumors in nude mice; type: in vivo
Description: In this study, the ability of tetrathiomolybdate (TM) to abrogate or retard the growth of tumors in the mammary pads of nude mice after orthotropic injection of human breast cancer cells was studied. The highly angiogenic inflammatory breast cancer cell line called SUM149 was selected for this study. Given its high propensity to form palpable tumors within 2 weeks of injection into the mammary of 80-100% of the nude mice injected, this cell line posed a stringent test of the ability of TM to impair tumor progression.
Three groups of 5 nude mice each were set up in separate cages. Groups 2 and 3 received TM in the drinking water to average an intake of 1.2 mg/day/mouse, starting at day-7. Groups 1, 2, and 3 were injected on day 0 with 10^6 SUM149 breast cancer cells in the second thoracic mammary fat pad. On day 34, as no palpable tumors were noticeable in any of the mice in the treatment groups, TM was skipped on groups 2 and 3, and then TM was restarted on group 2at a dose of 0.6 mg/day/mouse, while TM was resumed at full dose (1.2 mg/mouse/day) in group 3.
The developing tumors were measured approximately twice weekly, and the average of the product of the bi-dimensional perpendicular diameters for each group versus time was determined. The tumors in the control group grew relatively rapidly and all animals developed tumors. […] This dose decreases copper to approximately 10-20% of baseline levels. It is this degree of copper deficiency, well tolerated in both mice and humans, which appears to be required to inhibit tumor angiogenesis.

[11] = ½ dose of TM (0.6 mg/day/mouse)

**Q.** What does the source list for tetrathiomolybdate [TM]?
**A.** half life [1]: about 40 days; percentage activity ([1]; Day 0): 100; percentage activity ([1]; Day 45): 44; percentage activity ([1]; Day 148): 9; percentage activity ([1]; Day 211): 0; effective decoppering serum concentration relative to threshold lethal level for cells (fold lower) [2]: 100-500 fold; anemia ([3]; 18 mg of TM): the anemia was severe; effects in rats ([3]; approximately 6 mg of TM per kilogram of diet): substantial effects on copper; anemia ([3]; approximately 12 mg of TM): Mild anemia was present; skeletal lesions ([3]; approximately 12 mg of TM): one of six animals; prevention of toxic effects by copper ([3]; up to 36 mg of TM per kilogram of diet): could be prevented by oral supplementation with copper; tumor growth curves versus control animals (breast cancer cells): effectively inhibiting tumor growth; tolerance of TM injections ([4]; IV 50 or 100 mg 2x weekly, copper loaded sheep): tolerated up to 22 injections of TM without clinical problems; adverse side effects in commercial sheep flocks ([4]; over 400 animals treated): no adverse side effects; stability in capsules [5]: stable in capsules for several months at room temperature; TM-treated mice developing clinically overt tumors (mammary tumors; 0.5-1.0 mg TM by gavage daily from 100 days of age, median follow-up 260 days): none; ceruloplasmin (Cp) in treatment group (mammary tumors; 0.5-1.0 mg TM daily): below 40 % of baseline; outcome at higher doses (mammary tumors; 1.25-1.5 mg TM): died after 1-3 weeks of therapy; shrinkage of well established tumors (>1.5 cm) (mammary tumors; 3 control animals treated, 2/3 cases): 25% and 50%; vascularization of micro-tumors in mammary glands (mammary tumors; TM-treated mice, microscopic analyses): none of the micro-tumors of the treated mice were vascularized; maximum tolerated dose (MTD), prolonged treatment (mammary tumors; adult mice, average weight 32 grams): 1.0 mg/day; anemia (mammary tumors; copper (Cp) decreased to below 40% of baseline): no anemia observed; clinically overt toxicity (mammary tumors; copper levels decreased to 10% of baseline): no clinically overt toxicity; time to clinically overt mammary tumors after release from treatment (mammary tumors; cross-over group previously disease-free): ≤ 18 days; excreted in feces [6]: 5%; excreted in urine [6]: over 90%; t1/2 of slow plasma disappearance [6]: about 40 h; increase of loss of activity in moist heated air over ambient conditions [7]: about 10 fold; potency retained in gelatin capsules ([8]; eight weeks): at least 90%; stability of bulk drug ([8]; under argon): stable for several years under argon; speed of reducing Cp level to <20% (metastatic solid tumors; 20 mg tid with meals plus single 60 mg between meals vs 20 mg tid with and 20 mg tid between meals): more rapidly; mean time to 50% reduction of Cp (metastatic solid tumors; 90, 105, 120 mg/day): 30 days; median time to Cp 50% of baseline (metastatic solid tumors; 90, 105, 120 mg/day): 28 days; level III dose outcome (metastatic solid tumors; TM 120 mg/day): effective in reaching the target Cp, without added toxicity; time for further reduction to Cp levels of 5-10 mg/dl (metastatic solid tumors; after reaching 50% of baseline): 20 to 30 days; lung lesions in two patients with stable disease (metastatic solid tumors; at target Cp for 120 and 49 days): complete disappearance of some lung lesions and decrease in size of other lung lesions; additional toxicities with long-term maintenance (metastatic solid tumors; human, in vivo): No additional toxicities of any type were observed; burping (metastatic solid tumors; human, in vivo): Several patients experienced transient, occasional sulphur-smelling burping; mild (greater than 80% of baseline Hct) reversible anemia (metastatic solid tumors; human, in vivo): 4 patients; only drug-related toxicity observed (metastatic solid tumors; human, in vivo): mild anemia in one patient; time for hematocrit to recover after stopping the drug (metastatic solid tumors; human, in vivo): 5 to 7 days; time to rapid rise in Cp after TM discontinued (metastatic solid tumors; human, in vivo): ≤ 48 h; toxicities at Cp levels at or above 20% of baseline (metastatic solid tumors; human, in vivo): no cardiac, pulmonary, GI, renal, hepatic, hematologic, infectious, skin, mucosal, or neurologic toxicities observed; treated patients maintained at target Cp for more than 90 days (metastatic solid tumors; human, in vivo): 39%; patients with serum Cp lowered to 50% of baseline (metastatic solid tumors; initial TM 90 to 120 mg per day): 17 out of 18 patients; duration of stable disease on TM treatment (metastatic solid tumors; one patient, previously untreated metastatic breast cancer): over 6 months; decrease in blood flow to tumor mass (3D-ultrasound) (metastatic solid tumors; rib metastasis of renal cell carcinoma, approximately 8 weeks after target copper deficiency): 4.4 fold; tumor growth rate, final tumor size and weight ([9]; TM sufficient to reduce Cp to about 10% of normal, 16 days observation): significant effect on reducing the growth rate of tumors, and on reducing final tumor size and weight; tumor weight normalized to total weight of the animal versus control ([9]; mouse, in vivo): weighed significantly less than the tumors in control mice; palpable tumors in treatment groups ([10]; TM 1.2 mg/day/mouse in drinking water from day -7): no tumors were palpable until TM was skipped on day 34; copper level ([10]; full dose TM 1.2 mg/day/mouse): 10-20 % of baseline levels; tumor growth after day 34 ([10]; full dose TM 1.2 mg/day/mouse): only very small tumors have grown; decrease of copper levels [10, 11]: 50%; tumor growth after day 34 [10, 11]: the tumors grew more rapidly
